# How the values were obtained:
# [1] = biological target: T1, human 11-β-hydroxysteroid dehydrogenase type-1 enzyme (11-β-HSD1) (Homo sapiens, UniProt P28845); assay: 11-β-HSD1 enzyme scintillation proximity assay; assay type: biochemical; settings: human 11-β-HSD1 expressed in Pichia pastoris; Ki calculated from IC50 (Cheng-Prusoff)
# T1 construct: made in house; host or cells: Pichia pastoris
# Description: [1,2(n)-^3H]-cortisone was purchased from Amersham Pharmacia Biotech. Anti-cortisol monoclonal mouse antibody, clone 6D6.7 was obtained from Immunotech and Scintillation proximity assay (SPA) beads coated with monoclonal antimouse antibodies were from Amersham Pharmacia Biotech. NADPH, tetrasodium salt was from Calbiochem and glucose-6-phosphate (G-6-P) was supplied by Sigma The human 11-β-hydroxysteroid dehydrogenase type-1 enzyme (11-β-HSD1) was expressed in Pichia pastoris. 18-β-glycyrhetinic acid (GA) was obtained from Sigma. The serial dilutions of the compounds were performed on a Tecan Genesis RSP 150. […]
# The multiplication of plates was done on a WallacQuadra. The amount of the product [^3H]-cortisol, bound to the beads was determined in a Packard, Top Count microplate liquid scintillation counter. […]
# The plates were covered with plastic film and incubated on a shaker for 30 minutes, at room temperature, before counting. The amount of [^3H]-cortisol, bound to the beads was determined in a microplate liquid scintillation counter.
# The calculation of the Ki values for the inhibitors was performed by use of Activity Base. The Ki value is calculated from IC50 and the Km value is calculated using the Cheng Prushoff equation (with reversible inhibition that follows the Michaelis-Menten equation): […] [Cheng, Y. C.; Prushoff, W. H. Biochem. Pharmacol. 1973, 22, 3099–3108]. […]
# bone nodule formation = settings: cited from earlier work
# T1 sequence (P28845 whole entry): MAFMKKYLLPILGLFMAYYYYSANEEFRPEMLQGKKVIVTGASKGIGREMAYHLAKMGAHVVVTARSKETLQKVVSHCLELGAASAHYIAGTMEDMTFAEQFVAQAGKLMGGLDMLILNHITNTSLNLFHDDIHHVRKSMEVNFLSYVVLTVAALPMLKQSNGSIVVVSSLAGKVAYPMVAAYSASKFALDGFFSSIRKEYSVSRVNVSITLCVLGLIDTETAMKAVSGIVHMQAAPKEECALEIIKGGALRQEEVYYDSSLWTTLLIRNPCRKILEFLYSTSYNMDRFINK
Ki [1] [µM],SMILES,negative glucocorticoid effect on bone nodule formation (bone nodule formation)
0.028,"Cc1cc(Cl)cc(Cl)c1S(=O)(=O)Nc1nc2c(s1)C(=O)CC(C)(C)C2 [Example 8, 2,4-Dichloro-N-(5,5-dimethyl-7-oxo-4,5,6,7-tetrahydro-1,3-benzothiazol-2-yl)-6-methylbenzenesulfonamide.]",–
0.227,"Cc1cc(Br)ccc1S(=O)(=O)Nc1nc2c(s1)C(=O)CC(C)C2 (stereo not drawn) [Example 16, 4-Bromo-2methyl-N-(5methyl-7-oxo-4,5,6,7-tetrahydro-1,3-benzothiazol-2-yl)benzenesulfonamide]",–
–,CC1(C)[C@@H](OC(=O)CCC(=O)O)CC[C@]2(C)[C@H]3C(=O)C=C4[C@@H]5C[C@@](C)(C(=O)O)CC[C@]5(C)CC[C@@]4(C)[C@]3(C)CC[C@@H]12 [carbenoxolone],could be blocked
